Patent US20260098034A1, “2H-BENZOTRIAZOLE DERIVATIVE, PREPARATION METHOD THEREFOR, AND PHARMACEUTICAL COMPOSITION CONTAINING SAME” (ORXES THERAPEUTICS CO., LTD., priority 2022, published 2026)
Where “and” joins values, the source holds several entries; their conditions need not be identical. Equal values may be shown once. Where a name gives a salt, the structure may show the parent alone. Read-outs that look alike come from different tables or passages of the source.

Columns and labels:
[1] = test system: Wistar rats; experiment: PCA-induced Wistar rat premature ejaculation model; format: in vivo; conditions: for Actual number of ejaculations / Number of the seminal vesicle contractions / Seminal vesicle basal pressure / Seminal vesicle peak pressure / The first contraction latency period / The first ejaculation latency period: within 30 min after PCA induction, individual rats
Procedure: Male Wistar rats with a weight of about 300 g were adapted for one week before the experiment was started. On the day of the experiment, the animals were anesthetized with a combination of 20 mg/kg of Zoletil 50 via i.p. and 8 mg/kg of xylazine via i.p., and the body temperature was maintained at 37° C. with a thermal insulation blanket. Exposed common carotid artery was intubated with PE50 to monitor real-time arterial pressure (i.e. systolic pressure, diastolic pressure, and mean arterial pressure). The seminal vesicles and cavernosal muscles of the animals were exposed. The stable baselines of the pressure of the seminal vesicle and the cavernosal myoelectricity were recorded for 10 min. Then the drug was administered through the tail vein for the dapoxetine group, and the tested compound was orally administered for the tested compound group (for the PE model group, the drug was replaced with a solvent). After 1 min, for inducing PE modeling, 5 mg/kg of PCA was injected intraperitoneally, and then the seminal vesicle pressure curve and the change of bulbospongiosus EMG were continuously recorded for 30 min.
• A. Within 30 min, the actual number of ejaculations of the animals and the latency period of the first ejaculation; • B. Within 30 min, the number of the seminal vesicle contractions, the latency period of the first contraction, the basal pressure and the peak pressure.
The experimental data were expressed by means±S.E.M., and statistical analysis was performed by GraphPad Prism 7.0 software. Single factor variance analysis (One-way ANOVA) was used for comparison between multiple groups, and Dunnett't-test was used for statistical analysis in Post hoc test. Student's t-test was used for comparison between two groups. P<0.05 was considered as a significant difference.

[2] = 1 to 2 hours before sexual intercourse, cited from earlier work
[3] = 0.125 mg/kg p.o. + PCA 5 mg/kg i.p.
[4] = 0.5 mg/kg p.o. + PCA 5 mg/kg i.p.
[5] = 2 mg/kg p.o. + PCA 5 mg/kg i.p.
[6] = Dapoxetine 2 mg/kg i.v. + PCA 5 mg/kg i.p., hydrochloride
[7] = dapoxetine, medium or high dose of A001 to A006

SMILES	Actual number of ejaculations [1, 3]	Number of the seminal vesicle contractions [1, 3]	Seminal vesicle basal pressure [1, 3]	Seminal vesicle peak pressure [1, 3]	The first contraction latency period [1, 3]	The first ejaculation latency period [1, 3]	Actual number of ejaculations [1, 4]	Number of the seminal vesicle contractions [1, 4]	Seminal vesicle basal pressure [1, 4]	Seminal vesicle peak pressure [1, 4]	The first contraction latency period [1, 4]	The first ejaculation latency period [1, 4]	Actual number of ejaculations [1, 5]	Number of the seminal vesicle contractions [1, 5]	Seminal vesicle basal pressure [1, 5]	Seminal vesicle peak pressure [1, 5]	The first contraction latency period [1, 5]	The first ejaculation latency period [1, 5] [s]	also measured
Fc1ccc2c(N3CCN(CCCn4nc5ccccc5n4)CC3)noc2c1 [Compound A005]	0 (2×) and 4 (2×) and 5	2 and 3 and 6 and 8 and 7	3.99 mmHg and 3.98 mmHg and 5.98 mmHg and 5.59 mmHg and 5.18 mmHg	4.09 mmHg and 4.29 mmHg and 16.56 mmHg and 17.17 mmHg and 18.08 mmHg	1458 s and 1525 s and 707 s and 658 s and 738 s	1800 s (2×) and 965 s and 878 s and 806 s	5 (2×) and 3 and 0 (2×)	6 and 7 and 4 and 0 (2×)	5.89 mmHg and 6.05 mmHg and 5.15 mmHg and 3.93 mmHg and 4.22 mmHg	18.99 mmHg and 19.11 mmHg and 12.85 mmHg and 4.09 mmHg and 4.76 mmHg	778 s and 855 s and 1005 s and 1800 s (2×)	845 s and 903 s and 1175 s and 1800 s (2×)	0	0 (4×) and 1	4.16 mmHg and 4.27 mmHg and 4.65 mmHg and 4.32 mmHg and 3.93 mmHg	5.26 mmHg and 5.22 mmHg and 7.15 mmHg and 4.83 mmHg and 4.89 mmHg	1800 s (4×) and 1655 s	1800	–
Fc1ccc2c(N3CCN(CCCCn4nc5ccccc5n4)CC3)noc2c1 [Compound A006]	0 and 1 and 4 (2×) and 5	2 (2×) and 7 (2×) and 8	3.93 mmHg and 3.88 mmHg and 5.98 mmHg and 5.79 mmHg and 5.18 mmHg	4.11 mmHg and 4.21 mmHg and 16.58 mmHg and 15.19 mmHg and 17.07 mmHg	1453 s and 1325 s and 707 s and 758 s and 738 s	1800 s and 1330 s and 877 s and 798 s and 808 s	6 and 4 and 2 and 0 (2×)	8 and 6 and 3 and 0 (2×)	5.86 mmHg and 6.06 mmHg and 5.12 mmHg and 3.91 mmHg and 4.25 mmHg	18.66 mmHg and 20.61 mmHg and 12.89 mmHg and 4.19 mmHg and 4.79 mmHg	899 s and 816 s and 1022 s and 1800 s (2×)	855 s and 903 s and 1175 s and 1800 s (2×)	0	0 (4×) and 1	4.66 mmHg and 4.16 mmHg and 4.65 mmHg and 4.67 mmHg and 3.98 mmHg	5.13 mmHg and 5.28 mmHg and 4.97 mmHg and 4.79 mmHg and 7.87 mmHg	1800 s (4×) and 1660 s	1800	–
CN(C)[C@@H](CCOc1cccc2ccccc12)c1ccccc1 [Dapoxetine, Dapoxetine hydrochloride, reference compound]	–	–	–	–	–	–	–	–	–	–	–	–	–	–	–	–	–	–	Actual number of ejaculations [1, 6]: 1 (2×) and 0 (2×) and 2; Number of the seminal vesicle contractions [1, 6]: 1 (3×) and 0 and 3; Seminal vesicle basal pressure [1, 6]: 5.16 mmHg and 4.97 mmHg and 5.37 mmHg and 5.88 mmHg and 4.96 mmHg; Seminal vesicle peak pressure [1, 6]: 6.89 mmHg and 8.1 mmHg and 6.46 mmHg and 6.78 mmHg and 7.03 mmHg; The first contraction latency period [1, 6]: 1448 s and 1705 s and 1800 s and 1749 s and 866 s; The first ejaculation latency period [1, 6]: 1558 s and 1800 s (2×) and 1256 s and 967 s; latency period of initial seminal vesicle contraction compared with the PE model group ([1]; dapoxetine group (2 mg/kg i.v.), FIG. 4): significant increase; ejaculation latency period (conclusion) [1, 7]: effectively prolong; number of ejaculations (conclusion) [1, 7]: greatly reduce; increase of IELT ([2]; 30 mg): 2.5 times; increase of IELT ([2]; 60 mg): 3.0 times
